Measurements reported in PubChem BioAssay (NCI).
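All cell lines were grown in 96-well plates and treated with compound for 48 hours. Here, GI50 denotes the concentration required for 50% inhibition of growth. TGI denotes the concentration required for complete inhibition of growth.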

Legend:
Experiment in all cases: NCI-60 cell line screen, 48 h
LOX IMVI melanoma = system: LOX IMVI melanoma
NCI-H522 lung = system: NCI-H522 lung
UO-31 renal = system: UO-31 renal
U251 CNS = system: U251 CNS
K-562 leukemia = system: K-562 leukemia
HOP-62 NSCLC = system: HOP-62 NSCLC
NCI-H23 lung = system: NCI-H23 lung
MOLT-4 leukemia = system: MOLT-4 leukemia
SK-MEL-5 melanoma = system: SK-MEL-5 melanoma
RPMI-8226 leukemia = system: RPMI-8226 leukemia

SMILES | TGI (LOX IMVI melanoma) [µM] | TGI (NCI-H522 lung) [µM] | TGI (UO-31 renal) [µM] | TGI (U251 CNS) [µM] | TGI (K-562 leukemia) [µM] | TGI (HOP-62 NSCLC) [µM] | TGI (NCI-H23 lung) [µM] | TGI (MOLT-4 leukemia) [µM] | TGI (SK-MEL-5 melanoma) [µM] | TGI (RPMI-8226 leukemia) [µM] | GI50 (NCI-H522 lung) [µM] | GI50 (UO-31 renal) [µM] | GI50 (RPMI-8226 leukemia) [µM] | GI50 (K-562 leukemia) [µM] | GI50 (HOP-62 NSCLC) [µM] | GI50 (NCI-H23 lung) [µM] | GI50 (MOLT-4 leukemia) [µM] | GI50 (SK-MEL-5 melanoma) [µM] | GI50 (LOX IMVI melanoma) [µM] | GI50 (U251 CNS) [µM]
c1ccc(N=c2nc(N3CCOCC3)ss2)cc1 | 30.1 | 25.3 | 50.2 | 28.6 | 43.6 | > 100 | > 100 | 37.1 | > 100 | – | – | – | – | – | – | – | – | – | – | –
O=C(COc1ccc(OCC(=O)NNC2=NC(c3cc(F)c(Cl)cc3Cl)CS2)c(Cl)c1)NNC1=NC(c2cc(F)c(Cl)cc2Cl)CS1 (configuration not stated) | 5.15 | 34.5 | > 100 | 28.5 | > 100 | > 100 | 50.1 | > 100 | – | > 100 | – | – | – | – | – | – | – | – | – | –
CC(=O)OCC1=C(C(=O)O)C(c2ccc3c(c2)OCO3)c2cc3c(cc2O1)OCO3 (configuration not stated) | > 100 | – | > 100 | > 100 | > 100 | > 100 | > 100 | > 100 | > 100 | > 100 | – | – | – | – | – | – | – | – | – | –
NC1(C(=O)O)CCc2ccc(N(CCCl)CCCl)cc2C1 (configuration not stated) | > 100 | 74.3 | > 100 | > 100 | > 100 | 63.5 | > 100 | 87 | > 100 | > 100 | – | – | – | – | – | – | – | – | – | –
CCOc1ccc(/C(C=O)=C(\Cl)c2ccc(OC)c(OC)c2)cc1 | > 100 | > 100 | > 100 | > 100 | > 100 | – | > 100 | – | > 100 | > 100 | – | – | – | – | – | – | – | – | – | –
Cc1cc(C)nc(SCC(=O)OC2CC(C)CCC2C(C)C)n1 (configuration not stated) | 37.5 | 46 | 33.7 | 53.8 | 52.2 | 27.2 | > 100 | 38.6 | 29 | 41.3 | – | – | – | – | – | – | – | – | – | –
Cc1cc2c(C(C)C)c(O)c(O)c(C=NCCO)c2c(O)c1-c1c(C)cc2c(C(C)C)c(O)c(O)c(C=NCCO)c2c1O | 3.11 | 4.78 | 11 | 2.59 | 3.31 | 5.96 | 4.16 | 2.46 | 3.23 | 4.9 | – | – | – | – | – | – | – | – | – | –
C=C1C(=O)O[C@@H]2[C@H]1CCC(C)=C1C=CC(=O)[C@]12C | – | 6.96 | 28.7 | 54 | 90.2 | – | – | 39.4 | 27.5 | 49.7 | – | – | – | – | – | – | – | – | – | –
Clc1ccc(CNc2nc(Cl)c3[nH]cnc3n2)cc1Cl | – | 34.4 | 60 | > 100 | > 100 | 89.2 | > 100 | > 100 | 37.4 | – | – | – | – | – | – | – | – | – | – | –
COC(=O)[C@@]1(Cc2ccc(O)cc2)C[C@@H]2Cc3ccccc3N2N1 | > 100 | > 100 | > 100 | > 100 | – | > 100 | > 100 | > 100 | > 100 | > 100 | – | – | – | – | – | – | – | – | – | –
Fc1ccc(-c2nn3c(-c4cc(C(F)(F)F)cc(C(F)(F)F)c4)nnc3s2)cc1 | – | > 50 | > 50 | – | > 50 | 3.35 | > 50 | > 50 | > 50 | > 50 | 2.3 | 1.32 | > 50 | > 50 | 1.2 | 3.05 | > 50 | 4.42 | – | –
Cc1ccc(C2N=C(N)NC3=C2CCOc2c3ccc3ccccc23)cc1 (configuration not stated) | 38.9 | > 100 | > 100 | > 66.9 | > 44.1 | 35.1 | > 79.5 | > 74.8 | 30.9 | > 63.2 | – | – | – | – | – | – | – | – | 9.98 | –
Cc1c(-c2ccccc2)c(C#N)c2nnn(C3CCCCC3)c(=O)n12 | > 100 | > 100 | 6.85 | > 100 | > 100 | 46.6 | > 100 | – | > 100 | > 100 | – | – | – | – | – | – | – | – | – | –
O=C(Nc1c(C(=O)NC2CCCCC2)[nH]c(=O)[nH]c1=O)c1ccc(Cl)cc1 | > 100 | > 100 | > 100 | – | > 100 | > 100 | – | > 100 | > 100 | > 100 | – | – | – | – | – | – | – | – | – | –
COc1cc(C(=O)C2C(=O)c3ccccc3C2C2(O)c3ccccc3CC2C(O)c2cc(OC)c(OC)c(OC)c2)cc(OC)c1OC (configuration not stated) | > 100 | – | > 100 | > 100 | > 100 | > 100 | > 100 | > 100 | > 100 | 84.4 | – | – | – | – | – | – | – | – | – | –
COc1c2c(cc3c1OCO3)C13C=CC(OC)CC1N(CC3)C2 (configuration not stated) | > 100 | > 100 | > 100 | > 100 | – | > 100 | > 100 | > 100 | > 100 | > 100 | – | – | – | – | – | – | – | – | – | –
CCCC(N)C(=O)c1ccccc1 (configuration not stated) | > 100 | > 100 | > 100 | > 100 | > 100 | > 100 | > 100 | – | > 100 | > 100 | – | – | – | – | – | – | – | – | – | –
O=C(Nc1ccc(Sc2ccc(N=Nc3c(O)c(S(=O)(=O)O)cc4cc(S(=O)(=O)O)ccc34)cc2)cc1)c1ccc(N=Nc2c(O)ccc3c(S(=O)(=O)O)cc(S(=O)(=O)O)cc23)cc1 | 34.8 | 40.2 | > 100 | > 100 | 87.6 | > 100 | > 100 | 52.1 | 43.3 | 73.4 | – | – | – | – | – | – | – | – | – | –
O=c1c2ccccc2nc2n1C(c1ccc([N+](=O)[O-])cc1)C2(c1ccccc1)c1ccccc1 (configuration not stated) | > 100 | > 100 | – | > 100 | – | > 100 | > 100 | > 100 | > 100 | > 100 | – | – | – | – | – | – | – | – | – | –
CCC(=O)NC(Nc1cccc(F)c1)(C(F)(F)F)C(F)(F)F | > 100 | > 100 | > 100 | > 100 | > 100 | – | > 100 | > 100 | > 100 | > 100 | – | – | – | – | – | – | – | – | – | –
CC(=O)O[C@H]1C=CC(=O)C(C)CC1C (some centres not stated) | > 100 | > 100 | > 100 | > 100 | > 100 | > 100 | > 100 | > 100 | > 100 | – | – | – | – | – | – | – | – | – | – | –
Cc1cc(C)c2c(c1)C1=NCCN1C2(O)c1ccc(Cl)cc1 (configuration not stated) | 93.4 | – | 26.9 | 32.3 | 65 | 29.3 | 33.1 | > 100 | 27.7 | 33.2 | – | – | – | – | – | – | – | – | – | –
CC(=O)C=NCC(=O)O | > 100 | > 100 | – | > 100 | > 100 | > 100 | > 100 | > 100 | > 100 | > 100 | – | – | – | – | – | – | – | – | – | –
O=C(O)C1CCC(=O)N1S(=O)(=O)c1ccccc1 (configuration not stated) | > 100 | > 100 | > 100 | > 100 | > 100 | > 100 | > 100 | > 100 | > 100 | > 100 | – | – | – | – | – | – | – | – | – | –
COc1ccc(-c2nn(-c3cccc(NC(=O)Nc4ccccc4)c3)cc2-c2ccncc2)cc1Cl | 17 | 7.22 | 4.02 | 4.91 | > 100 | 9.13 | > 100 | 7.96 | – | 5.83 | 2.5 | 1.5 | 2.14 | 3.49 | 3.12 | 3.5 | 2.5 | – | 3.25 | 1.99
c1ccc(-c2nnc(SCc3c[nH]c4ccccc34)n2-c2ccccc2)cc1 | > 100 | > 100 | > 100 | > 100 | > 100 | > 100 | > 100 | > 100 | 61 | > 100 | – | – | – | – | – | – | – | – | – | –
CC(C)(C)OC(=O)NCCC(=O)NC1(c2cc3ccccc3s2)CCCCC1 | 36.5 | 26.2 | 30.5 | 37.7 | 28.9 | 35.3 | 31.4 | 28.5 | 25.9 | 20.5 | – | – | – | – | – | – | – | – | – | –
